From US8093249B2, “Pyrazolo[1,5-A]pyrimidine-carbonyl-piperazine derivatives” (Convergence Pharmaceuticals Limited, priority 2008, dated 2012) come the findings set out here.

Some results are limits rather than exact numbers.

The target in the first experiment is T1, hCaV2.2 (Homo sapiens, UniProt Q00975).
T1 construct: expressed in transfected cells; plasmids pCIN5-hCaV2.2, pCIH-hCaV β3, pCIP-α2δ1
T1 sequence (Q00975 whole entry): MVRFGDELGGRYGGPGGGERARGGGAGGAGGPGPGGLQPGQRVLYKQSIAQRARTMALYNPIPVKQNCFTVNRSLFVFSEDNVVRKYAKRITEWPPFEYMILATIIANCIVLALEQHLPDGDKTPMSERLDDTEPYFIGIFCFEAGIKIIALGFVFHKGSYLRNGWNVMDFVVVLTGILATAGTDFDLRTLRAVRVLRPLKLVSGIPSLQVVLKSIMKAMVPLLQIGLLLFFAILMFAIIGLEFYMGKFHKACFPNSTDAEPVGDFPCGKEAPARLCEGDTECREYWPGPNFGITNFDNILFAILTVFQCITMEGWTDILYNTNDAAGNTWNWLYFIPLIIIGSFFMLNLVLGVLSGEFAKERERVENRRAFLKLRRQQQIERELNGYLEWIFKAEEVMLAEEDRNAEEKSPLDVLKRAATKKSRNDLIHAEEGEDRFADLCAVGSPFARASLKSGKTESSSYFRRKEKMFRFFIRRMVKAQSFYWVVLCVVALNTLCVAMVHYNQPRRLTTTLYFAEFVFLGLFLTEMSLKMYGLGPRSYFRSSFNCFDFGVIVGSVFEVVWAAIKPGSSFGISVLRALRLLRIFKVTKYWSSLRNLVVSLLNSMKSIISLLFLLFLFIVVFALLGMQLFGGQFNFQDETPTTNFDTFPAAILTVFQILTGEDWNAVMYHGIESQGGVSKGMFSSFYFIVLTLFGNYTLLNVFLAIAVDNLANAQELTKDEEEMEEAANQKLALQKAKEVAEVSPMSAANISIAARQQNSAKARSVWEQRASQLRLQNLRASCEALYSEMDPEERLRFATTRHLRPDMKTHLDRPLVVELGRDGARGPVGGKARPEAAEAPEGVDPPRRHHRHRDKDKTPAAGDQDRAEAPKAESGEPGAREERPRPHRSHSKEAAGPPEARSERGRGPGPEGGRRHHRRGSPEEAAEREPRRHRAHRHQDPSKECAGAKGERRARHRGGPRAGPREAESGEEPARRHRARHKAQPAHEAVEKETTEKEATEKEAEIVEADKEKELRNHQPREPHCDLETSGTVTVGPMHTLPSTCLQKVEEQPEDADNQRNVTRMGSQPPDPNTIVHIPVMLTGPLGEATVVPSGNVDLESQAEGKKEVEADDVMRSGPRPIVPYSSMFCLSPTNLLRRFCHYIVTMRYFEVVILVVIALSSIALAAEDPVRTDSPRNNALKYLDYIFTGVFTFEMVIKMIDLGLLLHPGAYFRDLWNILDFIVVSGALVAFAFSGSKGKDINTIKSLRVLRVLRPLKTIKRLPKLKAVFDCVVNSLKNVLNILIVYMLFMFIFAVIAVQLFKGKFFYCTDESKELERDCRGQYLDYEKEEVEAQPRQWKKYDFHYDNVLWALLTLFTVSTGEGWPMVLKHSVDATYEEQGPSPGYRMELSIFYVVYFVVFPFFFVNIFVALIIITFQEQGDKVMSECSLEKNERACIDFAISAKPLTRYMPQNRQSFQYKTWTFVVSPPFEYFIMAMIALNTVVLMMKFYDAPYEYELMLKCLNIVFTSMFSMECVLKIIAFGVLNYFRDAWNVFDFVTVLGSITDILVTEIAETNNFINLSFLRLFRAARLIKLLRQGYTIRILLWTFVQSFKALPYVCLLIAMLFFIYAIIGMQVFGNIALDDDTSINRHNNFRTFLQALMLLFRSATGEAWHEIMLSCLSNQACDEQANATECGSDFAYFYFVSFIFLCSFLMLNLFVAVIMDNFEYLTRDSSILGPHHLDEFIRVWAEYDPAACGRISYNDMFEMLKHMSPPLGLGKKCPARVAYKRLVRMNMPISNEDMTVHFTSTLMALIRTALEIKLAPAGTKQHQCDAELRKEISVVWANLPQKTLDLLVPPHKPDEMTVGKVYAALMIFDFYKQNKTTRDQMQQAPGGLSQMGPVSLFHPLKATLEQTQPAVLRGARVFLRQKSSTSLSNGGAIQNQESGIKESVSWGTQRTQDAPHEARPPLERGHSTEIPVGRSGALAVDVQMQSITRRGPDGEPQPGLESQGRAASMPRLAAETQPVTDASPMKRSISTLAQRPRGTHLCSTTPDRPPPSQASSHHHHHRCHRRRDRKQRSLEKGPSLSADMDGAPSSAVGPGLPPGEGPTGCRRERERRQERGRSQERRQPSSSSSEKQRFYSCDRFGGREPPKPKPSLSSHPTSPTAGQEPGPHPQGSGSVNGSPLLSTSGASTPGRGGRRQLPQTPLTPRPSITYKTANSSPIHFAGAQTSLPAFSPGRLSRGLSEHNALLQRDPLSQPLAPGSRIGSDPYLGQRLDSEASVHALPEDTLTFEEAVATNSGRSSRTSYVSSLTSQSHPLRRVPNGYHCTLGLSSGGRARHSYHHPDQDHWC
T1 sequence (P54284 whole entry partner): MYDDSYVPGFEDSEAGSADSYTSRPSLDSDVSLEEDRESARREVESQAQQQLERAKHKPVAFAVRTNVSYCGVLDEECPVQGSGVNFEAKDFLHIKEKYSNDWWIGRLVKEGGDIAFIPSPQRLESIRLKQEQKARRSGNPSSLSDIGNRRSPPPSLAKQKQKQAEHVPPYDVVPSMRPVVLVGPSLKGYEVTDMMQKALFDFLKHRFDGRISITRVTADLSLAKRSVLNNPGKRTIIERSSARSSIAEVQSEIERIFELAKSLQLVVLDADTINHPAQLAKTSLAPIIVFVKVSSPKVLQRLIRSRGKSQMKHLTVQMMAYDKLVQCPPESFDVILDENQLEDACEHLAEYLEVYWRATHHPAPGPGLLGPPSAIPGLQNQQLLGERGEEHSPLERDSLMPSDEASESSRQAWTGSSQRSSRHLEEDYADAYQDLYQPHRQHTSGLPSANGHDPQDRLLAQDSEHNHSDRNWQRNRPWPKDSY
T1 sequence (P54289 25-946 partner limits assumed): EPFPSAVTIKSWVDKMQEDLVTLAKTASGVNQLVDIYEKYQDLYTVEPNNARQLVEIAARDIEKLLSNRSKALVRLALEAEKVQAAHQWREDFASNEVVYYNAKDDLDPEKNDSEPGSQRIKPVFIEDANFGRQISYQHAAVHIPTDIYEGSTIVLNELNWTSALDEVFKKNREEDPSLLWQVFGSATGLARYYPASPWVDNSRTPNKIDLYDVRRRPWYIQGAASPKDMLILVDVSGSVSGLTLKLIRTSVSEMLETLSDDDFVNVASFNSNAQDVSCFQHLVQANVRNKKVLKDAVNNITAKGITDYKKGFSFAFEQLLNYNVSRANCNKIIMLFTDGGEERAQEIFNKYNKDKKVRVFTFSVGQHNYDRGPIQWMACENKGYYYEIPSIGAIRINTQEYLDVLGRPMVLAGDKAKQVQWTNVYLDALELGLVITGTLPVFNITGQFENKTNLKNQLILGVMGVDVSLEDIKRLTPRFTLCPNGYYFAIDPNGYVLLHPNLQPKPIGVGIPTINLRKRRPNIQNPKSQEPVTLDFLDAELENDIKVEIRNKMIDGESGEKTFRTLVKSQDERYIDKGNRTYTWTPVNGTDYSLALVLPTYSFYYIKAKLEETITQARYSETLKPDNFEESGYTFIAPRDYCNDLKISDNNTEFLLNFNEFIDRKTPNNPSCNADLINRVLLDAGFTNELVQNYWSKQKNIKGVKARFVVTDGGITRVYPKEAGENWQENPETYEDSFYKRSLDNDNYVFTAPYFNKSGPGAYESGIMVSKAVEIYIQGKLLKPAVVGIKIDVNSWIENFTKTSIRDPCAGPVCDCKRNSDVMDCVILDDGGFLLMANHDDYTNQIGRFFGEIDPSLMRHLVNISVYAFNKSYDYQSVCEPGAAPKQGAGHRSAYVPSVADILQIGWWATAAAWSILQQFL
T1 sequence (P54289 947-1103 partner limits assumed): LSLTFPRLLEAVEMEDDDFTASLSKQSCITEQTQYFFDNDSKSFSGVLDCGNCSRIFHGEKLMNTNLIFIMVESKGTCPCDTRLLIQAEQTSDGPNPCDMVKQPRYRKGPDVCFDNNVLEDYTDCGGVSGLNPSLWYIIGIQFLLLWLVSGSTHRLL
In words: hCaV2.2 assay (IonWorks planar array electrophysiology, HEK293 stable cell line). Type of experiment: cell-based. The note with it: inhibition of current elicited by the 1st depolarizing pulse by 50%, HEK293 cells expressing human CaV2.2 α/β3/α2δ1; read-out: mean pIC50 value (tonic pIC50) (converted). From the text:
Compounds of the invention may be tested for in vitro biological activity in the hCaV2.2 assay in accordance with the following studies:
Stable cell lines expressing the human CaV2.2 α (α1B) subunit, along with the human β3 and α2δ1 auxillary subunits were created following sequential transfection and selection of human embryonic kidney (HEK293) cells. […] Initially HEK293 cells were transfected with two plasmid vectors for expression of the hCaV2.2 α subunit (pCIN5-hCaV2.2 which carries a neomycin resistance marker) and the hCaV β3 subunit (pCIH-hCaV β3 which carries a hygromycin resistance marker). […] These clonal cell lines were assessed for Cav2.2 α/β3-mediated current expression using the IonWorks planar array electrophysiology technology (described below). […] Expression of all three subunits within this cell line was continuously maintained by the inclusion of G418 (0.4 mg ml^−1), hygromycin (0.1 mg ml^−1) and puromycin (0.62 μg ml^−1). Cells were maintained at 37° C. in a humidified environment containing 5% CO2 in air.
Cells were grown to 30-60% confluence in T175 flasks and maintained at 30° C. for 24 hours prior to recording. […] Lifted cells were suspended in 10 ml of extracellular buffer. Cell suspension was then placed into a 15 ml tube and centrifuged for 2 minutes at 700 rpm. After centrifugation, the supernatant was removed and the cell pellet was resuspended in 4.5 ml of extracellular solution.
Currents were recorded at room temperature (21-23° C.) using the IonWorks planar array electrophysiology technology (Molecular Devices Corp.). Stimulation protocols and data acquisition were carried out using a microcomputer (Dell Pentium 4). In order to determine planar electrode hole resistances (Rp), a 10 mV, 160 ms potential difference was applied across each hole. These measurements were performed before cell addition. After cell addition a seal test was performed prior to antibiotic (amphotericin) circulation to achieve intracellular access. Leak subtraction was conducted in all experiments by applying a 160 ms hyperpolarizing (10 mV) prepulse 200 ms before the test pulses to measure leak conductance. Test pulses stepping from the holding potential (VH) of −90 mV to +10 mV were applied for 20 ms and repeated 10 times at a frequency of 10 Hz. In all experiments, the test pulse protocol was performed in the absence (pre-read) and presence (post-read) of a compound. Pre- and post-reads were separated by a compound addition followed by a 3-3.5 min incubation.
The intracellular solution contained the following (in mM): K-gluconate 120, KCl 20 mM, MgCl2 5, EGTA 5, HEPES 10, adjusted to pH 7.3. Amphotericin was prepared as 30 mg/ml stock solution and diluted to a final working concentration of 0.2 mg ml^−1 in intracellular buffer solution. The extracellular solution contained the following (in mM): Na-gluconate 120, NaCl 20, MgCl2 1, HEPES 10, BaCl2 5, adjusted to pH 7.4.
Finally the compounds were diluted 1:100 in external solution resulting in a final DMSO concentration of 1%.
Paired comparisons between pre-compound and post-compound additions were used to determine the inhibitory effect of each compound. […] In addition the use-dependent inhibitory properties of the compounds were determined by assessing the effect of compounds on the 10th versus 1st depolarizing pulse. The ratio of the 10th over 1st pulse was determined in the absence and presence of drug and the % use-dependent inhibition calculated.
Compounds were tested in the form as described in the Examples. […] Variations in pUD30 and pIC50 values may arise between tests.
As to `C[C@@H]1CN(S(=O)(=O)c2ccc(C(F)(F)F)cc2)CCN1C(=O)c1cnn2cccnc12` [Example 7, 3-[((2R)-2-Methyl-4-{[4-(trifluoromethyl)phenyl]sulfonyl}-1-piperazinyl)carbonyl]pyrazolo[1,5-a]pyrimidine], the IC50 is no less than 31.6 µM.

As for `Cc1cc(C)n2ncc(C(=O)N3CCN(S(=O)(=O)c4ccc(C(F)(F)F)cc4)CC3)c2n1` [Example 14, 5,7-dimethyl-3-[(4-{[4-(trifluoromethyl)phenyl]sulfonyl}-1-piperazinyl)carbonyl]pyrazolo[1,5-a] pyrimidine], the IC50 was no less than 31.6 µM. On to `O=C(c1cnn2cccnc12)N1CCN(S(=O)(=O)c2ccc(OC(F)(F)F)cc2)CC1` [Example 8, 3-{[4-({4-[(trifluoromethyl)oxy]phenyl}sulfonyl)-1-piperazinyl]carbonyl}pyrazolo[1,5-a]pyrimidine], for which the IC50 was no less than 31.6 µM. Regarding `Cc1cnc2c(C(=O)N3CCN(S(=O)(=O)c4ccc(C(F)(F)F)cc4)CC3)cnn2c1` [Example 6, 6-Methyl-3-[(4-{[4-(trifluoromethyl)phenyl]sulfonyl}-1-piperazinyl)carbonyl]pyrazolo[1,5-a]pyrimidine], the IC50 is no less than 31.6 µM.

On to `O=C(c1cnn2cccnc12)N1CCN(S(=O)(=O)c2ccc(C(F)(F)F)cc2)CC1` [Example 1, 3-[(4-{[4-(Trifluoromethyl)phenyl]sulfonyl}-1-piperazinyl)carbonyl]pyrazolo[1,5-a]pyrimidine], for which the IC50 was no less than 31.6 µM. Same read-out and setting: the result for `C[C@@H]1CN(C(=O)c2cnn3cccnc23)CCN1S(=O)(=O)c1ccc(OC(F)(F)F)cc1` [Example 21, 3-{[(3R)-3-methyl-4-({4-[(trifluoromethyl)oxy]phenyl}sulfonyl)-1-piperazinyl]carbonyl}pyrazolo[1,5-a] pyrimidine] reads no less than 31.6 µM. On the same count and under the same terms, the figure for `Cc1cnc2c(C(=O)N3CCN(S(=O)(=O)c4ccc(C#N)cc4C)C[C@@H]3C)cnn2c1` [Example 23, 3-methyl-4-({(3S)-3-methyl-4-[(6-methylpyrazolo[1,5-a]pyrimidin-3-yl)carbonyl]-1-piperazinyl}sulfonyl)benzonitrile] is no less than 31.6 µM. The same measure, in the same setting: the result for `Cc1nn2cccnc2c1C(=O)N1CCN(S(=O)(=O)c2ccc(C(F)(F)F)cc2)C[C@@H]1C` [Example 20, 2-methyl-3-[((2S)-2-methyl-4-{[4-(trifluoromethyl)phenyl]sulfonyl}-1-piperazinyl)carbonyl]pyrazolo[1,5-a] pyrimidine] reads no less than 10 µM; that for `C[C@H]1CN(C(=O)c2cnn3cccnc23)CCN1S(=O)(=O)c1ccc(C(F)(F)F)cc1` [Example 4, 3-[((3S)-3-Methyl-4-{[4-(trifluoromethyl)phenyl]sulfonyl}-1-piperazinyl)carbonyl]pyrazolo[1,5-a]pyrimidine], no less than 31.6 µM. On to `C[C@H]1CN(C(=O)c2cnn3cccnc23)CCN1S(=O)(=O)c1ccc(OC(F)(F)F)cc1` [Example 15, 3-{[(3S)-3-methyl-4-({4-[(trifluoromethyl)oxy]phenyl}sulfonyl)-1-piperazinyl]carbonyl}pyrazolo[1,5-a] pyrimidine], for which the IC50 was no less than 31.6 µM.

Regarding `Cc1ccc(C(F)(F)F)cc1S(=O)(=O)N1CCN(C(=O)c2cnn3cccnc23)[C@@H](C)C1` [Example 18, 3-[((2S)-2-methyl-4-{[2-methyl-5-(trifluoromethyl)phenyl]sulfonyl}-1-piperazinyl)carbonyl]pyrazolo[1,5-a] pyrimidine], the IC50 is no less than 31.6 µM. Same read-out and setting: the figure for `C[C@H]1CN(S(=O)(=O)c2ccc(C(F)(F)F)cc2)CCN1C(=O)c1cnn2cccnc12` [Example 2, 3-[((2S)-2-Methyl-4-{[4-(trifluoromethyl)phenyl]sulfonyl}-1-piperazinyl)carbonyl]pyrazolo[1,5-a]pyrimidine] is no less than 10 µM; for `C[C@@H]1CN(C(=O)c2cnn3cccnc23)CCN1S(=O)(=O)c1ccc(C(F)(F)F)cc1` [Example 3, 3-[((3R)-3-Methyl-4-{[4-(trifluoromethyl)phenyl]sulfonyl}-1-piperazinyl)carbonyl]pyrazolo[1,5-a]pyrimidine] it is no less than 31.6 µM. As to `Cc1ccc(C(F)(F)F)cc1S(=O)(=O)N1CCN(C(=O)c2cnn3cccnc23)CC1` [Example 19, 3-[(4-{[2-methyl-5-(trifluoromethyl)phenyl]sulfonyl}-1-piperazinyl)carbonyl]pyrazolo[1,5-a] pyrimidine], the IC50 is no less than 31.6 µM.

As for `Cc1cc(C#N)ccc1S(=O)(=O)N1CCN(C(=O)c2cnn3cccnc23)[C@@H](C)C1` [Example 5, 3-Methyl-4-{[(3S)-3-methyl-4-(pyrazolo[1,5-a]pyrimidin-3-ylcarbonyl)-1-piperazinyl]sulfonyl}benzonitrile], the IC50 was no less than 31.6 µM. Turning to `Cc1cc(C#N)ccc1S(=O)(=O)N1CCN(C(=O)c2c(C)nn3cccnc23)[C@@H](C)C1` [Example 24, 3-methyl-4-({(3S)-3-methyl-4-[(2-methylpyrazolo[1,5-a]pyrimidin-3-yl)carbonyl]-1-piperazinyl}sulfonyl)benzonitrile], the IC50 was no less than 31.6 µM. Still for that read-out and setting: the result for `Cc1cc(C#N)ccc1S(=O)(=O)N1CCN(C(=O)c2cnn3cc(Cl)cnc23)[C@@H](C)C1` [Example 16, 4-({(3S)-4-[(6-chloropyrazolo[1,5-a]pyrimidin-3-yl)carbonyl]-3-methyl-1-piperazinyl}sulfonyl)-3-methylbenzonitrile] reads no less than 10 µM; that for `C[C@@H]1CN(S(=O)(=O)c2ccc(OC(F)(F)F)cc2)CCN1C(=O)c1cnn2cccnc12` [Example 22, 3-{[(2R)-2-methyl-4-({4-[(trifluoromethyl)oxy]phenyl}sulfonyl)-1-piperazinyl]carbonyl}pyrazolo[1,5-a] pyrimidine], no less than 31.6 µM; that for `C[C@H]1CN(S(=O)(=O)c2ccc(C(F)(F)F)cc2)CCN1C(=O)c1cnn2cc(F)cnc12` [Example 9, 6-Fluoro-3-[((2S)-2-methyl-4-{[4-(trifluoromethyl)phenyl]sulfonyl}-1-piperazinyl)carbonyl]pyrazolo[1,5-a]pyrimidine], no less than 10 µM.

`C[C@H]1CN(S(=O)(=O)c2ccc(OC(F)(F)F)cc2)CCN1C(=O)c1cnn2cccnc12` [Example 11, 3-{[(2S)-2-methyl-4-({4-[(trifluoromethyl)oxy]phenyl}sulfonyl)-1-piperazinyl]carbonyl}pyrazolo[1,5-a]pyrimidine]: the IC50 is no less than 31.6 µM.

Still in this experiment, the particulars now being: mean pIC50 value (tonic pIC50), inhibition of current elicited by the 1st depolarizing pulse by 50%, HEK293 cells expressing human CaV2.2 α/β3/α2δ1.
`Cc1cc(C#N)ccc1S(=O)(=O)N1CCN(C(=O)c2cnn3cc(F)cnc23)[C@@H](C)C1` [Example 10, 4-({(3S)-4-[(6-fluoropyrazolo[1,5-a]pyrimidin-3-yl)carbonyl]-3-methyl-1-piperazinyl}sulfonyl)-3-methylbenzonitrile] displayed an IC50 of no less than 31.6 µM.
